Assay: xn = mol fraction of the nth substance listed, in the solute-free solvent

Cc1nc(C)c(C)nc1C + CCCCO + CC#N
solubility (g/100 g solution)
Details | 273.15 K | 278.15 K | 283.15 K | 288.15 K | 293.15 K | 298.15 K | 303.15 K | 308.15 K | 313.15 K
x2 = 0.1 | 14 | 16.4 | 19.4 | 21.5 | 27.1 | 29.5 | 36.1 | 39.3 | 44.2
x2 = 0.2 | 18.3 | 21 | 23.4 | 27.1 | 31.6 | 34.6 | 39.8 | 43.8 | 48.2
x2 = 0.3 | 21.2 | 24.6 | 26.9 | 30.9 | 35.3 | 38.2 | 42.8 | 46.6 | 50.5
x2 = 0.4 | 22.8 | 25.9 | 28.7 | 33 | 37.8 | 40.3 | 44.8 | 48.5 | 52.8
x2 = 0.5 | 23.7 | 26.6 | 30.4 | 34 | 39.2 | 41.5 | 45.7 | 49.3 | 53.6
x2 = 0.6 | 24.5 | 26.1 | 30.6 | 34.2 | 39.4 | 41.6 | 45.7 | 50 | 53.9
x2 = 0.7 | 24.3 | 25.7 | 30.1 | 33.6 | 39.3 | 41.5 | 44.8 | 50.1 | 53.6
x2 = 0.8 | 23.5 | 24.9 | 29.4 | 33 | 38.4 | 41 | 43.8 | 49.6 | 53
x2 = 0.9 | 21.8 | 23.6 | 27.9 | 30.6 | 36.3 | 39.2 | 41.8 | 47.9 | 51.3

CCc1cccc2c3c([nH]c12)C(CC)(CC(=O)O)OCC3 (stereo not given) + CCCCOC(C)=O + CCCCCC
solubility (g/100 g solution)
Details | 278.15 K | 283.15 K | 288.15 K | 293.15 K | 298.15 K | 303.15 K | 308.15 K | 313.15 K | 318.15 K | 323.15 K
x2 = 0.1568 | 0.52 | 0.667 | 0.805 | 0.936 | 1.08 | 1.23 | 1.41 | 1.62 | 1.86 | 2.07
x2 = 0.3309 | 3.1 | 3.48 | 3.93 | 4.43 | 5 | 5.64 | 6.39 | 7.21 | 8.15 | 9.12
x2 = 0.5268 | 4.5 | 5.13 | 5.79 | 6.5 | 7.27 | 8.13 | 9.13 | 10.2 | 11.5 | 12.9
x2 = 0.7478 | 7.51 | 8.4 | 9.35 | 10.4 | 11.5 | 12.8 | 14.2 | 15.8 | 17.5 | 19.4

CCc1cccc2c3c([nH]c12)C(CC)(CC(=O)O)OCC3 (stereo not given) + CCCO + CCCCCC
solubility (g/100 g solution)
Details | 278.15 K | 283.15 K | 288.15 K | 293.15 K | 298.15 K | 303.15 K | 308.15 K | 313.15 K | 318.15 K | 323.15 K
x2 = 0.2645 | 3.73 | 4.25 | 4.84 | 5.55 | 6.34 | 7.19 | 8.14 | 9.21 | 10.4 | 11.7
x2 = 0.4889 | 7.29 | 8.31 | 9.43 | 10.8 | 12.2 | 14 | 15.9 | 18.1 | 20.6 | 23.4
x2 = 0.6827 | 10.4 | 11.8 | 13.4 | 15.2 | 17 | 19.4 | 22.2 | 25.3 | 28.6 | 31.9
x2 = 0.8514 | 12.8 | 14.4 | 16.5 | 18.7 | 21.5 | 24.5 | 27.9 | 31.4 | 35.1 | 38.5

O=C(O)c1ccc(-n2nc(-c3ccccc3O)nc2-c2ccccc2O)cc1 + CCO + CC#N
298.15 K
Details | solubility (g/100 g solution)
x2 = 0.09009 | 4.09
x2 = 0.1822 | 7.7
x2 = 0.2764 | 11.7
x2 = 0.3727 | 15.7
x2 = 0.4712 | 18.8
x2 = 0.572 | 21.2
x2 = 0.6752 | 21.4
x2 = 0.7809 | 19.3
x2 = 0.8891 | 15.9

O=CC(O)C(O)C(O)CO (stereo not given) + CCO + CCCCCC
solubility (g/100 g solution)
Details | x2 = 0.1 | x2 = 0.2 | x2 = 0.3 | x2 = 0.4 | x2 = 0.5 | x2 = 0.6 | x2 = 0.7 | x2 = 0.8 | x2 = 0.9
283.15 K | 0.0708 | 0.0912 | 0.139 | 0.18 | 0.281 | 0.514 | 0.692 | 1.16 | 1.73
293.15 K | 0.0738 | 0.111 | 0.171 | 0.268 | 0.425 | 0.715 | 1.07 | 1.56 | 2.52
303.15 K | 0.0959 | 0.119 | 0.186 | 0.375 | 0.676 | 1.1 | 1.5 | 2.39 | 4.09
313.15 K | 0.117 | 0.179 | 0.269 | 0.599 | 0.925 | 1.8 | 2.44 | 4.02 | 6.9
323.15 K | 0.147 | 0.234 | 0.317 | 0.98 | 1.54 | 2.72 | 3.96 | 6.76 | 12.3

O=C(O)c1ccc(-n2nc(-c3ccccc3O)nc2-c2ccccc2O)cc1 + CCO + CO
298.15 K
Details | solubility (g/100 g solution)
x2 = 0.07174 | 12.7
x2 = 0.1481 | 12.9
x2 = 0.2296 | 12.8
x2 = 0.3168 | 12.7
x2 = 0.4102 | 12.5
x2 = 0.5106 | 12.2
x2 = 0.6188 | 11.9
x2 = 0.7356 | 11.5
x2 = 0.8623 | 11

O=CC(O)C(O)C(O)CO (stereo not given) + CCO + ClCCl
solubility (g/100 g solution)
Details | x2 = 0.1 | x2 = 0.2 | x2 = 0.3 | x2 = 0.4 | x2 = 0.5 | x2 = 0.6 | x2 = 0.7 | x2 = 0.8 | x2 = 0.9
283.15 K | 0.222 | 0.374 | 0.669 | 1.02 | 1.41 | 1.64 | 1.88 | 2.05 | 2.24
288.15 K | 0.227 | 0.458 | 0.813 | 1.26 | 1.81 | 2.12 | 2.32 | 2.57 | 2.85
293.15 K | 0.254 | 0.522 | 1.1 | 1.55 | 2.15 | 2.55 | 2.96 | 3.23 | 3.55
298.15 K | 0.264 | 0.645 | 1.28 | 1.9 | 2.77 | 3.18 | 3.69 | 4.2 | 4.58
303.15 K | 0.325 | 0.776 | 1.43 | 2.28 | 3.27 | 4.09 | 4.72 | 5.4 | 5.99

O=c1cc(-c2ccccc2)oc2cc(O)c(O)c(O)c12 + CCO + O
solubility (g/100 g solution)
Details | 283.15 K | 288.15 K | 293.15 K | 298.15 K | 303.15 K | 308.15 K | 313.15 K | 318.15 K | 323.15 K | 328.15 K
x2 = 0.2 | 0.0427 | 0.0499 | 0.0671 | 0.0809 | 0.0932 | 0.105 | 0.128 | 0.157 | 0.179 | 0.228
x2 = 0.4 | 0.194 | 0.221 | 0.262 | 0.314 | 0.372 | 0.444 | 0.554 | 0.643 | 0.73 | 0.887
x2 = 0.6 | 0.413 | 0.455 | 0.52 | 0.587 | 0.663 | 0.795 | 0.919 | 1.07 | 1.23 | 1.46
x2 = 0.8 | 0.474 | 0.525 | 0.574 | 0.634 | 0.728 | 0.831 | 0.939 | 1.08 | 1.27 | 1.51

CC(C)Oc1ccc2c(=O)c(-c3ccccc3)coc2c1 + CN1CCCC1=O + CCO
solubility (g/100 g solution)
Details | 278.15 K | 283.15 K | 288.15 K | 293.15 K | 298.15 K | 303.15 K | 308.15 K | 313.15 K | 318.15 K | 323.15 K
x2 = 0.1038 | 1.5 | 1.87 | 2.26 | 2.85 | 3.5 | 4.39 | 5.46 | 6.91 | 8.81 | 10.8
x2 = 0.2359 | 2.85 | 3.39 | 4.07 | 4.91 | 6.03 | 7.33 | 8.92 | 11 | 13.1 | 15.9
x2 = 0.41 | 5.57 | 6.67 | 7.63 | 9.21 | 10.9 | 12.9 | 15.3 | 17.8 | 21 | 24.9
x2 = 0.6471 | 9.68 | 11 | 12.7 | 14.6 | 16.8 | 19.3 | 22.1 | 25.1 | 28.4 | 32.1

CC(C)Oc1ccc2c(=O)c(-c3ccccc3)coc2c1 + CN(C)C=O + CCO
solubility (g/100 g solution)
Details | 278.15 K | 283.15 K | 288.15 K | 293.15 K | 298.15 K | 303.15 K | 308.15 K | 313.15 K | 318.15 K | 323.15 K
x2 = 0.1358 | 1.29 | 1.64 | 2.07 | 2.55 | 3.28 | 4.15 | 5.33 | 6.87 | 8.61 | 11
x2 = 0.2956 | 2.42 | 3 | 3.68 | 4.58 | 5.6 | 6.95 | 8.67 | 10.9 | 13.3 | 16.5
x2 = 0.4859 | 3.8 | 4.83 | 5.92 | 7.22 | 8.72 | 10.4 | 12.9 | 15.3 | 18.8 | 22.7
x2 = 0.716 | 5.06 | 6.49 | 7.97 | 9.74 | 11.7 | 14.2 | 17.1 | 20.4 | 24 | 28.5

N#CC(c1ccc(Cl)cc1)c1c(Cl)cc(-n2ncc(=O)[nH]c2=O)cc1Cl (stereo not given) + CN(C)C=O + CCO
solubility (g/100 g solution)
Details | 283.15 K | 288.15 K | 293.15 K | 298.15 K | 303.15 K | 308.15 K | 313.15 K | 318.15 K | 323.15 K
x2 = 0.1361 | 3.28 | 3.86 | 4.52 | 5.25 | 6.05 | 6.91 | 7.87 | 8.89 | 9.99
x2 = 0.2959 | 5.7 | 6.56 | 7.46 | 8.51 | 9.59 | 10.8 | 12 | 13.4 | 14.7
x2 = 0.486 | 8.24 | 9.37 | 10.4 | 11.7 | 12.9 | 14.2 | 15.7 | 17.2 | 18.8
x2 = 0.716 | 10.6 | 11.8 | 12.9 | 14.3 | 15.6 | 17 | 18.5 | 20 | 21.6

Cc1nc(C)c(C)nc1C + CO + CC#N
solubility (g/100 g solution)
Details | 273.15 K | 278.15 K | 283.15 K | 288.15 K | 293.15 K | 298.15 K | 303.15 K | 308.15 K | 313.15 K
x2 = 0.1 | 12.7 | 15 | 18.1 | 21.4 | 25.1 | 28.9 | 33.9 | 37.6 | 44.6
x2 = 0.2 | 17.3 | 20.5 | 23.4 | 26.7 | 30.8 | 34.9 | 40.1 | 43.5 | 50.5
x2 = 0.3 | 21.2 | 24.5 | 28.2 | 31.8 | 36.5 | 40.2 | 46 | 49.2 | 55.7
x2 = 0.4 | 25.6 | 28.9 | 32.5 | 36.4 | 41 | 44.3 | 50 | 53.8 | 60.4
x2 = 0.5 | 28.6 | 32 | 36.6 | 39.9 | 45.1 | 48.2 | 53.4 | 57.3 | 63.5
x2 = 0.6 | 31.3 | 34.5 | 39.2 | 42.7 | 47.6 | 51.5 | 56.2 | 60.5 | 67.4
x2 = 0.7 | 33.6 | 36.1 | 40.8 | 44.6 | 49.4 | 53.8 | 59 | 63.1 | 70
x2 = 0.8 | 34.6 | 37.3 | 42.2 | 45.7 | 50.8 | 54.8 | 61.3 | 64.9 | 71.2
x2 = 0.9 | 35 | 37.6 | 42.7 | 45.6 | 51 | 54.9 | 61.9 | 65.3 | 70.7

O=C(O)c1ccc(-n2nc(-c3ccccc3O)nc2-c2ccccc2O)cc1 + CO + CC#N
298.15 K
Details | solubility (g/100 g solution)
x2 = 0.1246 | 4.33
x2 = 0.2426 | 7.73
x2 = 0.3544 | 11.2
x2 = 0.4606 | 14.2
x2 = 0.5616 | 16.4
x2 = 0.6577 | 17.6
x2 = 0.7493 | 18
x2 = 0.8367 | 17.2
x2 = 0.9202 | 15.3

— the CheMixHub drug solubility set
